# According to ChEMBL document CHEMBL3271945, “Azabicyclo chemistry. 6. An investigation of one of the chemical parameters for analgetic activity. Synthesis of 2-methyl-2-azabicyclo[3.3.1]non-6-ene and -non-7-ene” (J Med Chem, 1977):
# Calls of active or inactive are those of the source. No cut-off for these calls is given here.
# Columns and labels:
# Mus musculus [1] = assay: Analgetic activity in sc dosed mouse by hot-plate method; format: functional
# Mus musculus [2] = assay: Analgetic activity in mouse at 100 mg/kg, sc by hot-plate method; format: functional, organism-based; design: dose 100 mg/kg
# Mus musculus [3] = assay: Toxicity in mouse at 100 mg/kg, sc; format: organism-based; design: dose 100 mg/kg, route subcutaneous; conditions: in vivo
# Mus musculus [4] = assay: Analgetic activity in mouse at 50 mg/kg, sc by hot-plate method; format: functional, organism-based; design: dose 50 mg/kg
Compound,ED50 (Mus musculus [1]) [mg/kg],other results
CN1CCC2CC(=O)CC1C2 (stereo not drawn),40,
CN1CC[C@@H]2CC=C[C@@H]1C2,,Activity (Mus musculus [2]): inactive
CN1CCC2CC1C[C@@H](O)C2 (stereo partly drawn),,Activity (Mus musculus [2]): inactive
CN1CC[C@H]2C[C@H]1Cc1ccc(O)cc12,4.5,
CN1CC[C@@H]2C=CC[C@@H]1C2,,Activity (Mus musculus [3]): Toxic; Activity (Mus musculus [4]): inactive
CN1CC[C@@]2(C)C[C@H]1Cc1ccccc12,11,
CN1CC[C@]23c4c5ccc(O)c4O[C@H]2[C@@H](O)C=C[C@H]3[C@H]1C5 [MORPHINE],1.2,
